Measurements taken from US11058661B2, “Compositions and methods for lowering triglycerides in a subject on concomitant statin therapy and having hsCRP levels of at least about 2 mg/L” (priority 2018, dated 2021).

Key:
[1] = AAMI pilot study: essential fatty acids in plasma and RBC; type: in vivo, human
Protocol: Blood samples (10 mL) were collected at Visit 1 (screening) and at Visits 4, 5 and 6. Analysis was performed by MSR Lipid Analysis, Scottish Crop Research Institute, Dundee, UK. The screening sample acted as baseline for the EFA measurements. Lipid was extracted from plasma, serum and RBC suspensions and converted into fatty acid methyl esters which were analyzed by gas chromatography to give fatty acid profiles as micrograms fatty acid per gram of sample (μgFA/g) and normalized area percent. RBC and plasma EFA data were collected at baseline, Day 14, 28 and 42 and summarized by visit for each treatment group. Change from baseline and percent change from baseline were also summarized. ANCOVA comparison of ethyl-EPA dose groups and ethyl-EPA versus placebo was performed.

[2] = system: statin-treated patients with fasting TG ≥200 and <500 mg/dL; assay: ANCHOR study, entire population: fasting TG; type: in vivo, human; settings: 4 g/day
Protocol: A multi-center, placebo-controlled, randomized, double-blind, 12-week study is performed to evaluate the efficacy and safety of >96% E-EPA in patients with fasting triglyceride levels ≥200 mg/dl and <500 mg/dl despite statin therapy (the mean of two qualifying entry values needs to be ≥185 mg/dl and at least one of the values needs to be ≥200 mg/dl). The primary objective of the study is to determine the efficacy of >96% E-EPA 2 g daily and 4 g daily, compared to placebo, in lowering fasting TG levels in patients with high risk for cardiovascular disease and with fasting TG levels ≥200 mg/dL and <500 mg/dL, despite treatment to LDL-C goal on statin therapy.
The population for this study is men and women >18 years of age with a body mass index ≤45 kg/m^2 with fasting TG levels greater than or equal to 200 mg/dl and less than 500 mg/dl and on a stable does of statin therapy (with or without ezetimibe). The statin must be atorvastatin, rosuvastatin or simvastatin. The dose of statin must be stable for ≥4 weeks prior to the LDL-C/TG baseline qualifying measurement for randomization. The statin dose will be optimal such that the patients are at their LDL-C goal at the LDL-C/TG baseline qualifying measurements. The same statin at the same dose will be continued until the study ends. […]

CC/C=C\C/C=C\C/C=C\C/C=C\C/C=C\CCCC(=O)OCC [Icosapent Ethyl, ethyl eicosapentaenoate]
DHA LS Mean, 1 g versus 4 g ([1]; RBC): 1.0 µg/g | DHA LS Mean, 2 g versus 4 g ([1]; RBC): 1.0 µg/g | DPAn-3 LS Mean, 1 g versus 4 g ([1]; RBC): -6.2 µg/g | DPAn-3 LS Mean, 2 g versus 4 g ([1]; RBC): -2.5 µg/g | AA Mean (SD) change from Baseline ([1]; RBC, Day 14, 1 g): −8.1 (21.95) μg/g | DGLA Mean (SD) change from Baseline ([1]; RBC, Day 14, 1 g): −2.7 (3.82) μg/g | DHA Mean (SD) change from Baseline ([1]; RBC, Day 14, 1 g): −4.6 (9.76) μg/g | DPAn-3 Mean (SD) change from Baseline ([1]; RBC, Day 14, 1 g): 0.9 (5.03) μg/g | EPA/AA Mean (SD) change from Baseline ([1]; RBC, Day 14, 1 g): 0.1 (0.04) μg/g | AA Mean (SD) change from Baseline ([1]; RBC, Day 14, 2 g): −3.1 (25.84) μg/g | DGLA Mean (SD) change from Baseline ([1]; RBC, Day 14, 2 g): −2.6 (3.54) μg/g | DHA Mean (SD) change from Baseline ([1]; RBC, Day 14, 2 g): −2.0 (9.46) μg/g | DPAn-3 Mean (SD) change from Baseline ([1]; RBC, Day 14, 2 g): 5.6 (6.28) μg/g | EPA/AA Mean (SD) change from Baseline ([1]; RBC, Day 14, 2 g): 0.2 (0.04) μg/g | DGLA Mean (SD) change from Baseline ([1]; RBC, Day 14, 4 g): −5.3 (4.10) μg/g | DHA Mean (SD) change from Baseline ([1]; RBC, Day 14, 4 g): −6.9 (9.13) μg/g | DPAn-3 Mean (SD) change from Baseline ([1]; RBC, Day 14, 4 g): 5.4 (5.38) μg/g | EPA/AA Mean (SD) change from Baseline ([1]; RBC, Day 14, 4 g): 0.3 (0.07) μg/g | AA Mean (SD) change from Baseline ([1]; RBC, Day 28, 1 g): −17.0 (20.69) μg/g | DGLA Mean (SD) change from Baseline ([1]; RBC, Day 28, 1 g): −3.8 (3.31) μg/g | DHA Mean (SD) change from Baseline ([1]; RBC, Day 28, 1 g): −6.4 (11.57) μg/g | DPAn-3 Mean (SD) change from Baseline ([1]; RBC, Day 28, 1 g): 3.3 (5.42) μg/g | EPA/AA Mean (SD) change from Baseline ([1]; RBC, Day 28, 1 g): 0.1 (0.05) μg/g | DGLA Mean (SD) change from Baseline ([1]; RBC, Day 28, 2 g): −4.5 (3.58) μg/g | DHA Mean (SD) change from Baseline ([1]; RBC, Day 28, 2 g): −6.2 (9.34) μg/g | DPAn-3 Mean (SD) change from Baseline ([1]; RBC, Day 28, 2 g): 9.4 (6.74) μg/g | EPA/AA Mean (SD) change from Baseline ([1]; RBC, Day 28, 2 g): 0.02 (0.06) μg/g | DGLA Mean (SD) change from Baseline ([1]; RBC, Day 28, 4 g): −7.1 (4.63) μg/g | DHA Mean (SD) change from Baseline ([1]; RBC, Day 28, 4 g): −8.7 (11.63) μg/g | EPA/AA Mean (SD) change from Baseline ([1]; RBC, Day 28, 4 g): 0.4 (0.11) μg/g | DGLA Mean (SD) change from Baseline ([1]; RBC, Day 42, 1 g): −3.5 (4.51) μg/g | DHA Mean (SD) change from Baseline ([1]; RBC, Day 42, 1 g): −7.0 (12.20) μg/g | DPAn-3 Mean (SD) change from Baseline ([1]; RBC, Day 42, 1 g): 6.5 (6.19) μg/g | EPA/AA Mean (SD) change from Baseline ([1]; RBC, Day 42, 1 g): 0.1 (0.06) μg/g | DGLA Mean (SD) change from Baseline ([1]; RBC, Day 42, 2 g): −5.3 (3.65) μg/g | DHA Mean (SD) change from Baseline ([1]; RBC, Day 42, 2 g): −6.3 (9.42) μg/g | EPA/AA Mean (SD) change from Baseline ([1]; RBC, Day 42, 2 g): 0.3 (0.06) μg/g | DGLA Mean (SD) change from Baseline ([1]; RBC, Day 42, 4 g): −8.0 (4.98) μg/g | EPA/AA Mean (SD) change from Baseline ([1]; RBC, Day 42, 4 g): 0.4 (0.14) μg/g | DPAn-3 LS Mean, 2 g versus 4 g ([1]; plasma): -9.5 µg/g | EPA values, change from baseline ([1]; plasma and RBC, to Day 42, 1, 2 and 4 g groups): increased substantially from baseline | AA Mean (SD) change from Baseline ([1]; plasma, Day 14, 1 g): −9.7 (22.20) μg/g | DHA Mean (SD) change from Baseline ([1]; plasma, Day 14, 1 g): −6.4 (13.30) μg/g | DPAn-3 Mean (SD) change from Baseline ([1]; plasma, Day 14, 1 g): 7.5 (5.11) μg/g | EPA/AA Mean (SD) change from Baseline ([1]; plasma, Day 14, 1 g): 0.3 (0.4) μg/g | DHA Mean (SD) change from Baseline ([1]; plasma, Day 14, 2 g): −5.4 (14.29) μg/g | EPA/AA Mean (SD) change from Baseline ([1]; plasma, Day 14, 2 g): 0.6 (0.23) μg/g | EPA/AA Mean (SD) change from Baseline ([1]; plasma, Day 14, 4 g): 1.1 (0.28) μg/g | DHA Mean (SD) change from Baseline ([1]; plasma, Day 28, 1 g): −6.6 (15.53) μg/g | DPAn-3 Mean (SD) change from Baseline ([1]; plasma, Day 28, 1 g): 3.9 (5.62) μg/g | EPA/AA Mean (SD) change from Baseline ([1]; plasma, Day 28, 1 g): 0.3 (0.20) μg/g | DHA Mean (SD) change from Baseline ([1]; plasma, Day 28, 2 g): −8.1 (15.82) μg/g | EPA/AA Mean (SD) change from Baseline ([1]; plasma, Day 28, 2 g): 0.8 (0.35) μg/g | EPA/AA Mean (SD) change from Baseline ([1]; plasma, Day 28, 4 g): 1.3 (0.42) μg/g | AA Mean (SD) change from Baseline ([1]; plasma, Day 42, 1 g): −8.7 (31.35) μg/g | DGLA Mean (SD) change from Baseline ([1]; plasma, Day 42, 1 g): −9.4 (9.41) μg/g | DHA Mean (SD) change from Baseline ([1]; plasma, Day 42, 1 g): −5.4 (18.17) μg/g | EPA/AA Mean (SD) change from Baseline ([1]; plasma, Day 42, 1 g): 0.3 (0.24) μg/g | DHA Mean (SD) change from Baseline ([1]; plasma, Day 42, 2 g): −6.0 (16.69) μg/g | EPA/AA Mean (SD) change from Baseline ([1]; plasma, Day 42, 2 g): 0.7 (0.29) μg/g | DPAn-3 Mean (SD) change from Baseline ([1]; plasma, Day 42, 4 g): 32.0 (16.01) μg/g | EPA/AA Mean (SD) change from Baseline ([1]; plasma, Day 42, 4 g): 1.3 (0.45) μg/g | reduction of median TG from baseline compared with placebo [2]: 21.5%
